Assay results from patent US20260325654A1, “METHODS AND COMPOSITIONS FOR TARGETED PROTEIN DEGRADATION” (Ranok Therapeutics (Hangzhou) Co. Ltd., priority 2023, published 2026).
Where a name gives a salt, the structure may show the parent alone.

Key:
AGS = test: CellTiter-Glo Reagent cancer cell line proliferation assay, AGS; format: cell-based, human; details: Homo sapiens, 24 h, KRAS(G12D) heterozygous
In short: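 Cells were seeded at 4,000 per well, grown 24 hr at 37° C./5% CO2, then exposed 24 hr to 3-fold dilutions from 20 μM to 1.02 nM (0.5% DMSO final). Viability was read with CellTiter-Glo luminescence, and IC50 values were calculated.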

GP2D = test: CellTiter-Glo Reagent cancer cell line proliferation assay, GP2D; format: cell-based; details: Homo sapiens, KRAS(G12D) heterozygous, 24 hr
Excerpt: (§1) The following cancer cell lines were employed: • AsPC-1 human pancreatic adenocarcinoma, homozygous KRAS(G12D), (ATCC, #CRL-1682); A-427 human lung carcinoma, heterozygous KRAS(G12D), (ATCC, #HTB-53); AGS human gastric adenocarcinoma, heterozygous KRAS(G12D), (ATCC, #CRL-1739); GP2D human colon adenocarcinoma, heterozygous KRAS(G12D), (Sigma Aldrich, 95090714); SW1990 human pancreatic adenocarcinoma, homozygous KRAS(G12D), (ATCC, #CRL2172); LU65A human lung giant cell carcinoma, heterozygous KRAS(G12C), (JCRB Cell Bank, #JCRB0054); NCIH727 human lung carcinoid, heterozygous KRAS(G12V), (ATCC, #CRL-5815); MKN1 human gastric adenosquamous carcinoma KRAS (wt), (JCRB Cell Bank, #JCRB0252). Cell lines were cultured according to ATCC, JCRB and Sigma Aldrich recommendations.
(§2) Cells were plated in 96-well tissue culture plates at 4,000 cells/well and incubated at 37° C./5% CO2 for 24 hr in 100 μl of media. 3-fold serial dilutions of each test compound were prepared ranging from 20 μM to 1.02 nM. Cells were then treated with test compounds at various concentrations with a final concentration of 0.5% DMSO/well, and then incubated at 37° C./5% CO2 for 24 hr. 100 μl of CellTiter-Glo® Reagent (Promega Corporation, Madison, WI) was added to each well and processed according manufacturer's protocol. Results were analyzed and IC50-values were calculated in GraphPad 7 software.

KRAS(G12D) [1] = molecular target: T1, KRAS(G12D) (Homo sapiens, UniProt P01116, G12D); test: KRAS Western Blot Protein Degradation Assay, GP2D; format: cell-based; set-up: Cell lines SW1990 and GP2D that express KRAS(G12D); host or cells: GP2D; details: for Dmax: GP2d, read-out: WB data GP2D DMax; for DC50: read-out: WB data GP2D DC50, GP2D, KRAS degradation, 24 hr
Excerpt: as §1
(§3) Cell lines SW1990 and GP2D that express KRAS(G12D), LU65A that expresses KRAS(G12C), and NCIH727 that expresses KRAS(G12V) were seeded in 6- or 12-well tissue culture plates, and after 1 hr, test compounds were added at various concentrations and incubated at 37° C./5% CO2 for 24 hr. Cells were then washed with cold PBS, aspirated and cold RIPA buffer containing a protease/phosphatase inhibitor cocktail was added to lyse cells. After centrifugation, the total protein concentrations of cell lysates were determined using the BCA protein assay. Samples were normalized for equivalent protein concentrations, 5× SDS-PAGE loading buffer added and denatured at 100° C. for 10 min. 20 μl of each sample/well was loaded on a SDS-PAGE gel and electrophoresed for 20 min at 80 V, then 120 V for 1.5 hr. Gels were then electroblotted to nitrocellulose membranes using a wet-transfer method at 250 mA for 2.5 hr. Membranes were incubated with blocking buffer for 1 hr and washed 3 times with TBST for 5 min. Membranes were then incubated with anti-KRAS (Sigma-Aldrich, #SAB1404011) and anti-β-Actin monoclonal antibodies (Cell Signaling Technology, #3700) diluted in blocking buffer at 4° C. overnight per the manufacturer's recommendations. After washing 3 times, blots were incubated with appropriately labeled secondary antibodies for 1 hr at room temperature and washed again. Fluorescence imaging and quantitation was performed using a LI-COR Odyssey. Results was analyzed using GraphPad Prism 7 software. Compound concentrations that induced KRAS degradation (DC50 and DCmax) were calculated using GraphPad Prism 7 software.
Target sequence in this assay (P01116 1-185 isoform P01116-2 G12D limits assumed): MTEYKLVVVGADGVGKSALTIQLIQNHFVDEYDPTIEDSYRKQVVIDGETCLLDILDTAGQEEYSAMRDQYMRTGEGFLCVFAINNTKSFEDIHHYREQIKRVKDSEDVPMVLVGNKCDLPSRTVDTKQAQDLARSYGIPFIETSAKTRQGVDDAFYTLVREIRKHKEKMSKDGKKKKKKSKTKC

A427 = test: CellTiter-Glo Reagent cancer cell line proliferation assay, A427; format: cell-based; details: Homo sapiens, A-427; A427, KRAS(G12D) heterozygous, 24 hr
Excerpt: as §1, §2

SW1990 = test: CellTiter-Glo Reagent cancer cell line proliferation assay, SW1990; format: cell-based; details: Homo sapiens; SW1990, KRAS(G12D) homozygous, 24 hr
Excerpt: as §1, §2

KRAS(G12D) [2] = molecular target: T1, KRAS(G12D); test: cell-based; format: cell-based; set-up: Cell lines SW1990 and GP2D that express KRAS(G12D); host or cells: SW1990; details: for Dmax: SW1990, read-out: WB data SW1990 DMax; for DC50: read-out: WB data SW1990 DC50, SW1990, KRAS degradation, 24 hr
Experimental: Cell lines were cultured according to ATCC, JCRB and Sigma Aldrich recommendations.
as §3, with “Cells” for “Cell lines SW1990 and GP2D that express KRAS(G12D), LU65A that expresses KRAS(G12C), and NCIH727 that expresses KRAS(G12V) were seeded in 6- or 12-well tissue culture plates, and after 1 hr, test compounds were added at various concentrations and incubated at 37° C./5% CO2 for 24 hr. Cells”
Target sequence in this assay (P01116 1-188 isoform P01116-2 G12D): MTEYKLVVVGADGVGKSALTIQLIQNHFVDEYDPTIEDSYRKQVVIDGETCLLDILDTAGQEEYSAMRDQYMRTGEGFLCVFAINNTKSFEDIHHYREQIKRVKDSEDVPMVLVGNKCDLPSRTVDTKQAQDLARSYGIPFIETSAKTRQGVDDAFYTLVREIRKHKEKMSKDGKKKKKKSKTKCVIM

ASPC-1 = test: CellTiter-Glo Reagent cancer cell line proliferation assay, ASPC-1; format: cell-based; details: Homo sapiens, ASPC1; ASPC-1, KRAS(G12D) homozygous, 24 hr
Excerpt: as §1, §2

SMILES	IC50 (AGS)	IC50 (GP2D)	Dmax (KRAS(G12D) [1])	DC50 (KRAS(G12D) [1])	IC50 (SW1990)	Dmax (KRAS(G12D) [2])	DC50 (KRAS(G12D) [2])	IC50 (A427)	IC50 (ASPC-1)
O=CO.[2H]C([2H])([2H])Oc1nc(-c2cc(O)cc3ccc(F)c(C#C)c23)c(F)c2nc(OCC3(CN4CCN(CC5CCN(c6ccc7c(c6)CN(C6CCC(=O)NC6=O)C7=O)CC5)CC4)CC3)nc(N3CC4CCC(C3)N4CC#N)c12 (centres unmarked) [Compound 94]	< 100 nM	< 100 nM	> 50%	< 100 nM	–	–	–	–	–
CN1C[C@H](N2CCC(C(=O)NCCOCCOc3ccc4c(c3)C(=O)N(C3CCC(=O)NC3=O)C4=O)CC2)C[C@@H]1COc1nc(N2CC3CCC(C2)N3)c2cnc(-c3cc(O)cc4ccccc34)c(F)c2n1 (some centres unmarked) [Compound 24]	> 1000 nM	–	–	–	–	–	–	> 1000 nM	–
C#Cc1c(F)ccc2cc(O)cc(-c3ncc4c(N5CC6CCC(C5)N6)nc(OCC5(CN6CCN(CC7CCN(c8ccc9c(=O)n(C%10CCC(=O)NC%10=O)ncc9c8)CC7)CC6)CC5)nc4c3F)c12 (centres unmarked) [Compound 88]	< 100 nM	< 100 nM	–	–	< 100 nM	10 to 50%	> 1000 nM	–	–
O=C1CCC(N2C(=O)c3ccc(CN4CCN([C@H]5CN6CCCC6(COc6nc(N7CC8CCC(C7)N8)c7cnc(-c8cc(O)cc9ccccc89)c(F)c7n6)C5)CC4)cc3C2=O)C(=O)N1 (some centres unmarked) [Compound 20]	> 1000 nM	–	–	–	–	–	–	> 1000 nM	> 1000 nM
C#Cc1c(F)ccc2cc(O)cc(-c3ncc4c(N5CC6CCC(C5)N6C(=O)C(F)(F)F)nc(OCC5(CN6CCN(CC7CCN(c8ccc9c(c8)CN(C8CCC(=O)NC8=O)C9=O)CC7)CC6)CC5)nc4c3F)c12 (centres unmarked) [Compound 78]	–	–	–	–	< 100 nM	10 to 50%	100 to 1000 nM	–	–
C#Cc1c(F)ccc2cc(O)cc(-c3ncc4c(N5CC6CCC(C5)N6)nc(OCC5(CN6CCN(CC#Cc7ccc8c(c7)CN(C7CCC(=O)NC7=O)C8=O)CC6)CC5)nc4c3F)c12 (centres unmarked) [Compound 89]	< 100 nM	< 100 nM	–	–	100 to 1000 nM	10 to 50%	> 1000 nM	–	–
C#Cc1cccc2cc(O)cc(-c3ncc4c(N5CC6CCC(C5)N6)nc(OCC5(CN6CCN(C(=O)C7CCN(c8ccc9c(c8)CN(C8CCC(=O)NC8=O)C9=O)CC7)CC6)CC5)nc4c3F)c12 (centres unmarked) [Compound 58]	< 100 nM	–	–	–	100 to 1000 nM	–	–	> 1000 nM	100 to 1000 nM
C#Cc1cccc2cccc(-c3ncc4c(N5CC6CCC(C5)N6)nc(OC[C@H]5C[C@@H](N6CCN(CC7CCC(Nc8ccc9c(c8)C(=O)N(C8CCC(=O)NC8=O)C9=O)CC7)CC6)CN5C)nc4c3F)c12 (some centres unmarked) [Compound 47]	> 1000 nM	–	–	–	> 1000 nM	–	–	> 1000 nM	> 1000 nM
C#Cc1c(F)ccc2cc(O)cc(-c3ncc4c(N5C[C@H]6CC[C@@H](C5)N6)nc(OCC5(CN6CC(C#Cc7ccc8c(c7)CN(C7CCC(=O)NC7=O)C8=O)C6)CC5)nc4c3F)c12 (stereo partly drawn) [Compound 90, 3-(5-((1-((1-(((4-((1R,5S)-3,8-diazabicyclo[3.2.1]octan-3-yl)-7-(8-ethynyl-7-fluoro-3-hydroxynaphthalen-1-yl)-8-fluoropyrido[4,3-d]pyrimidin-2-yl)oxy)methyl)cyclopropyl)methyl)azetidin-3-yl)ethynyl)-1-oxoisoindolin-2-yl) piperidine-2,6-dione formate]	< 100 nM	< 100 nM	–	–	< 100 nM	10 to 50%	> 1000 nM	–	–

Now from value to compound, other results behind:

IC50 (AGS)	IC50 (GP2D)	Dmax (KRAS(G12D) [1])	DC50 (KRAS(G12D) [1])	IC50 (SW1990)	Dmax (KRAS(G12D) [2])	DC50 (KRAS(G12D) [2])	SMILES	IC50 (A427)	IC50 (ASPC-1)
< 100 nM	< 100 nM	> 50%	< 100 nM	–	–	–	C#Cc1c(F)ccc2cc(O)cc(-c3ncc4c(N5CC6CCC(C5)N6CC#N)nc(OCC5(CN6CCN(CC7CCN(c8ccc9c(c8)CN(C8CCC(=O)NC8=O)C9=O)CC7)CC6)CC5)nc4c3F)c12 (centres unmarked) [Compound 101]	–	–
100 to 1000 nM	< 100 nM	< 10%	> 1000 nM	–	–	–	O=CO.[2H]C([2H])([2H])Oc1nc(-c2cc(O)cc3ccc(F)c(C#C)c23)c(F)c2nc(OCC3(CN4CCN(CC5CCN(c6ccc7c(c6)CN(C6CCC(=O)NC6=O)C7=O)CC5)CC4)CC3)nc(N3CC4CCC(C3)N4CCC#N)c12 (centres unmarked) [Compound 95]	–	–
> 1000 nM	100 to 1000 nM	10 to 50%	> 1000 nM	–	–	–	[2H]C([2H])([2H])Oc1nc(-c2cc(O)cc3ccc(F)c(C#C)c23)c(F)c2nc(OCC3(CN4CCN(CC5CCN(c6ccc7c(c6)CN(C6CCC(=O)NC6=O)C7=O)CC5)CC4)CC3)nc(N3CC4CCC(C3)N4CC(C)C)c12 (centres unmarked) [Compound 96]	–	–
100 to 1000 nM	100 to 1000 nM	10 to 50%	> 1000 nM	–	–	–	[2H]C([2H])([2H])Oc1nc(-c2cc(O)cc3ccc(F)c(C#C)c23)c(F)c2nc(OCC3(CN4CCN(CC5CCN(c6ccc7c(c6)CN(C6CCC(=O)NC6=O)C7=O)CC5)CC4)CC3)nc(N3CC4CCC(C3)N4CC(F)(F)F)c12 (centres unmarked) [Compound 97]	–	–
< 100 nM	< 100 nM	> 50%	< 100 nM	–	–	–	O=CO.[2H]C([2H])([2H])Oc1nc(-c2cc(O)cc3ccc(F)c(C#C)c23)c(F)c2nc(OCC3(CN4CCN(CC5CCN(c6ccc7c(c6)CN(C6CCC(=O)NC6=O)C7=O)CC5)CC4)CC3)nc(N3CC4CCC(C3)N4CCO)c12 (centres unmarked) [Compound 98]	–	–
< 100 nM	< 100 nM	> 50%	< 100 nM	–	–	–	C#Cc1c(F)ccc2cc(O)cc(-c3nc(OC)c4c(N5CC6CCC(C5)N6CC#N)nc(OCC5(CN6CCN(CC7CCN(c8ccc9c(c8)CN(C8CCC(=O)NC8=O)C9=O)CC7)CC6)CC5)nc4c3F)c12 (centres unmarked) [Compound 100, 2-(3-(2-((1-((4-((1-(2-(2,6-dioxopiperidin-3-yl)-1-oxoisoindolin-5-yl)piperidin-4-yl)methyl)piperazin-1-yl)methyl)cyclopropyl)methoxy)-7-(8-ethynyl-7-fluoro-3-hydroxynaphthalen-1-yl)-8-fluoro-5-methoxypyrido[4,3-d]pyrimidin-4-yl)-3,8-diazabicyclo[3.2.1]octan-8-yl) acetonitrile formate]	–	–
